This assay has as its system BDF1 mice, colon carcinoma 38 sc, T/C %. Kind of assay: NCI In Vivo Anticancer Drug Screen. Data for tumor model Colon Carcinoma 38 (subcutaneous) in B6D2F1 (BDF1) mice. Summed up:
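Ratio of survival or tumor size, compound-treated animals relative to vehicle controls, in tumor-bearing mice.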

Setting [1] is: endpoint: median tumor weight (est.), dose: 12.5 mg/kg/injection, schedule: Q07DX002 (ip), vehicle: saline, higher = larger tumour.
Where [2] appears, read: endpoint: median tumor weight (est.), dose: 50.0 mg/kg/injection, schedule: Q07DX002 (ip), vehicle: saline, higher = larger tumour.
Where [3] appears, read: endpoint: median tumor weight (est.), dose: 100.0 mg/kg/injection, schedule: Q07DX002 (ip), vehicle: saline, higher = larger tumour.
[4] abbreviates: endpoint: median tumor weight (est.), dose: 12.5 mg/kg/injection, schedule: Q07DX002 (ip), vehicle: saline with Tween-80, higher = larger tumour.
Where [5] appears, read: endpoint: median tumor weight (est.), dose: 50.0 mg/kg/injection, schedule: Q07DX002 (ip), vehicle: saline with Tween-80, higher = larger tumour.
The mark [6] stands for this setting: endpoint: median tumor weight (est.), dose: 200.0 mg/kg/injection, schedule: Q07DX002 (ip), vehicle: saline with Tween-80, higher = larger tumour.
Where [7] appears, read: endpoint: median tumor weight (est.), dose: 400.0 mg/kg/injection, schedule: Q07DX002 (ip), vehicle: saline with Tween-80, higher = larger tumour.
The mark [8] stands for this setting: endpoint: median tumor weight (est.), dose: 25.0 mg/kg/injection, schedule: Q07DX002 (ip), vehicle: saline with Tween-80, higher = larger tumour.
Where [9] appears, read: endpoint: median tumor weight (est.), dose: 100.0 mg/kg/injection, schedule: Q07DX002 (ip), vehicle: saline with Tween-80, higher = larger tumour.
[10] abbreviates: endpoint: median tumor weight (est.), dose: 10.0 mg/kg/injection, schedule: Q07DX002 (ip), vehicle: saline with Tween-80, higher = larger tumour.

Where “and” joins values, the source holds several entries; their conditions need not be identical. Identical values can stand only once. Inconclusive results are not listed.

For `Cc1cc2c(cc1C)C(=O)c1c(O)c3c(c(O)c1C2=O)C[C@@](O)(C(=O)CO)C[C@@H]3OC1CC(N)C(O)C(C)O1` (some centres not stated), the T/C is, setting by setting: (endpoint: median tumor weight (est.), dose: 4.75 mg/kg/injection, schedule: Q07DX002 (ip), vehicle: distilled water + Tween-80, higher = larger tumour) 51 % of control; (endpoint: median tumor weight (est.), dose: 6.33 mg/kg/injection, schedule: Q07DX002 (ip), vehicle: distilled water + Tween-80, higher = larger tumour) 65 % of control; (endpoint: median tumor weight (est.), dose: 8.44 mg/kg/injection, schedule: Q07DX002 (ip), vehicle: distilled water + Tween-80, higher = larger tumour) 28 % of control; (endpoint: median tumor weight (est.), dose: 11.25 mg/kg/injection, schedule: Q07DX002 (ip), vehicle: distilled water + Tween-80, higher = larger tumour) 23 % of control; (endpoint: median tumor weight (est.), dose: 15.0 mg/kg/injection, schedule: Q07DX002 (ip), vehicle: distilled water + Tween-80, higher = larger tumour) 17 % of control.

Take `O=C[C@@H](CO)O[C@H](C=O)c1c[nH]c(=O)[nH]c1=O`: the T/C runs as follows: under setting [1], 121 % of control; under setting [2], 83 % of control; under setting [3], 121 % of control; (endpoint: median tumor weight (est.), dose: 200.0 mg/kg/injection, schedule: Q07DX002 (ip), vehicle: saline, higher = larger tumour) 57 % of control.

For the compound `COC1(OC)C2C=CC1CC2`, the T/C was 73 % of control under setting [4]; 105 % of control and 107 % of control under setting [5]; 80 % of control and 94 % of control under setting [6]; 113 % of control and 105 % of control under setting [7].

In the case of `COc1cc(C2c3cc4c(cc3C(O)C(CO)C2CO)OCO4)cc(OC)c1OC` (configuration not stated), the T/C reads like this: under setting [4], 81 % of control; under setting [8], 155 % of control; under setting [5], 180 % of control; under setting [9], 203 % of control; under setting [6], 160 % of control; under setting [7], 174 % of control.

Consider `C=C(C)C(=O)OC1C/C(CO)=C\C(O)C/C(C)=C/C2OC(=O)C(=C)C21` (configuration not stated), for which the T/C reads like this: (endpoint: median tumor weight (est.), dose: 2.5 mg/kg/injection, schedule: Q07DX002 (ip), vehicle: saline + alcohol, higher = larger tumour) 105 % of control; (endpoint: median tumor weight (est.), dose: 5.0 mg/kg/injection, schedule: Q07DX002 (ip), vehicle: saline + alcohol, higher = larger tumour) 117 % of control; (endpoint: median tumor weight (est.), dose: 20.0 mg/kg/injection, schedule: Q07DX002 (ip), vehicle: saline + alcohol, higher = larger tumour) 120 % of control; (endpoint: median tumor weight (est.), dose: 40.0 mg/kg/injection, schedule: Q07DX002 (ip), vehicle: saline + alcohol, higher = larger tumour) 119 % of control.

Consider `C[n+]1cccc(NC(=O)c2ccc(NC(=O)C34CCC(C(=O)Nc5ccc(C(=O)Nc6ccc[n+](C)c6)cc5)(CC3)CC4)cc2)c1`, for which the T/C by setting is: under setting [10], 60 % of control; (endpoint: median tumor weight (est.), dose: 20.0 mg/kg/injection, schedule: Q07DX002 (ip), vehicle: saline with Tween-80, higher = larger tumour) 57 % of control; (endpoint: median tumor weight (est.), dose: 22.5 mg/kg/injection, schedule: Q07DX002 (ip), vehicle: saline with Tween-80, higher = larger tumour) 93 % of control; (endpoint: median tumor weight (est.), dose: 40.0 mg/kg/injection, schedule: Q07DX002 (ip), vehicle: saline with Tween-80, higher = larger tumour) 28 % of control; (endpoint: median tumor weight (est.), dose: 45.0 mg/kg/injection, schedule: Q07DX002 (ip), vehicle: saline with Tween-80, higher = larger tumour) 71 % of control; (endpoint: median tumor weight (est.), dose: 80.0 mg/kg/injection, schedule: Q07DX002 (ip), vehicle: saline with Tween-80, higher = larger tumour) 20 % of control. For the same compound, where the note is “endpoint: median tumor weight (est.), dose: 90.0 mg/kg/injection, schedule: Q07DX002 (ip), vehicle: saline with Tween-80, higher = larger tumour”, the T/C was 109 % of control.

For `O=C(O)C(O)C(O)C1[O][Sb][O]C1C(=O)O` (configuration not stated), the T/C is 90 % of control under setting [1]; 35 % of control (endpoint: median tumor weight (est.), dose: 25.0 mg/kg/injection, schedule: Q07DX002 (ip), vehicle: saline, higher = larger tumour); 109 % of control under setting [2]; 85 % of control under setting [3].

As for `O.O.[NH-]C1CCCCC1[NH-].[Pt+2]` (configuration not stated), the T/C reads like this: (endpoint: median tumor weight (est.), dose: 1.25 mg/kg/injection, schedule: Q07DX002 (ip), vehicle: dextrose, higher = larger tumour) 98 % of control; (endpoint: median tumor weight (est.), dose: 10.0 mg/kg/injection, schedule: Q07DX002 (ip), vehicle: dextrose, higher = larger tumour) 61 % of control and 62 % of control; (endpoint: median tumor weight (est.), dose: 20.0 mg/kg/injection, schedule: Q07DX002 (ip), vehicle: dextrose, higher = larger tumour) 37 % of control and 43 % of control; (endpoint: median tumor weight (est.), dose: 40.0 mg/kg/injection, schedule: Q07DX002 (ip), vehicle: dextrose, higher = larger tumour) 20 % of control.

For `Cc1ccc(Cl)c2ccccc12`, the T/C is 96 % of control and 102 % of control under setting [4]; 92 % of control under setting [8]; 89 % of control and 96 % of control under setting [9]; 88 % of control and 96 % of control under setting [6]; 87 % of control under setting [7].

For the compound `CCCCCCCCCCCC(=O)NC1CC(O[C@H]2C[C@](O)(C(=O)CO)Cc3c(O)c4c(c(O)c32)C(=O)c2c(OC)cccc2C4=O)OC(C)C1O` (some centres not stated), the T/C is, setting by setting: (endpoint: median survival time, dose: 17.0 mg/kg/injection, schedule: Q07DX003 (iv), vehicle: saline, higher = longer survival) 97 % of control; (endpoint: median survival time, dose: 43.0 mg/kg/injection, schedule: Q07DX003 (iv), vehicle: saline, higher = longer survival) 123 % of control; (endpoint: median survival time, dose: 70.0 mg/kg/injection, schedule: Q07DX003 (iv), vehicle: saline, higher = longer survival) 103 % of control; (endpoint: median tumor weight (est.), dose: 28.7 mg/kg/injection, schedule: Q07DX002 (ip), vehicle: distilled water + Tween-80, higher = larger tumour) 96 % of control; (endpoint: median tumor weight (est.), dose: 56.3 mg/kg/injection, schedule: Q07DX002 (ip), vehicle: distilled water + Tween-80, higher = larger tumour) 101 % of control.

`O=C(O)/C=C/C(=O)Nc1ccc(Cl)c(Cl)c1`: the T/C (endpoint: median tumor weight (est.), dose: 12.5 mg/kg/injection, schedule: Q07DX003 (ip), vehicle: Klucel (hydroxypropylcellulose) (HPC), higher = larger tumour) is 84 % of control; the T/C (endpoint: median tumor weight (est.), dose: 25.0 mg/kg/injection, schedule: Q07DX002 (ip), vehicle: Klucel (hydroxypropylcellulose) (HPC), higher = larger tumour) is 67 % of control; the T/C (endpoint: median tumor weight (est.), dose: 50.0 mg/kg/injection, schedule: Q07DX002 (ip), vehicle: Klucel (hydroxypropylcellulose) (HPC), higher = larger tumour) is 77 % of control; the T/C (endpoint: median tumor weight (est.), dose: 50.0 mg/kg/injection, schedule: Q07DX003 (ip), vehicle: Klucel (hydroxypropylcellulose) (HPC), higher = larger tumour) is 69 % of control; the T/C (endpoint: median tumor weight (est.), dose: 100.0 mg/kg/injection, schedule: Q07DX002 (ip), vehicle: Klucel (hydroxypropylcellulose) (HPC), higher = larger tumour) was 78 % of control; the T/C (endpoint: median tumor weight (est.), dose: 100.0 mg/kg/injection, schedule: Q07DX003 (ip), vehicle: Klucel (hydroxypropylcellulose) (HPC), higher = larger tumour) is 122 % of control. In addition, for the setting “endpoint: median tumor weight (est.), dose: 200.0 mg/kg/injection, schedule: Q07DX002 (ip), vehicle: Klucel (hydroxypropylcellulose) (HPC), higher = larger tumour”, the T/C is 67 % of control.

On to `CCOC(=O)c1[nH]c2cccc3c2c1CC(Br)C3=O` (configuration not stated), for which the T/C is 120 % of control under setting [8], 92 % of control under setting [5], 90 % of control under setting [9] and 78 % of control under setting [6].

Consider `C/C=C/C=C/c1cc2cc3c(c(O)c2c(=O)[nH]1)C1(CC3)C(O)=c2c(=O)c3c(=O)cc(OC)c(=O)c=3c(=O)c2=C1O` (configuration not stated), for which the T/C (endpoint: median tumor weight (est.), dose: 0.06 mg/kg/injection, schedule: Q07DX002 (ip), vehicle: DMSO, higher = larger tumour) is 74 % of control and 97 % of control; the T/C (endpoint: median tumor weight (est.), dose: 0.12 mg/kg/injection, schedule: Q07DX002 (ip), vehicle: DMSO, higher = larger tumour) was 115 % of control and 91 % of control; the T/C (endpoint: median tumor weight (est.), dose: 0.15 mg/kg/injection, schedule: Q07DX002 (ip), vehicle: DMSO, higher = larger tumour) was 81 % of control; the T/C (endpoint: median tumor weight (est.), dose: 0.25 mg/kg/injection, schedule: Q07DX002 (ip), vehicle: DMSO, higher = larger tumour) was 57 % of control; the T/C (endpoint: median tumor weight (est.), dose: 0.3 mg/kg/injection, schedule: Q07DX002 (ip), vehicle: DMSO, higher = larger tumour) is 85 % of control; the T/C (endpoint: median tumor weight (est.), dose: 0.5 mg/kg/injection, schedule: Q07DX002 (ip), vehicle: DMSO, higher = larger tumour) is 79 % of control and 93 % of control. Also, the T/C reads like this: (endpoint: median tumor weight (est.), dose: 0.61 mg/kg/injection, schedule: Q07DX002 (ip), vehicle: DMSO, higher = larger tumour) 87 % of control; (endpoint: median tumor weight (est.), dose: 1.0 mg/kg/injection, schedule: Q07DX002 (ip), vehicle: DMSO, higher = larger tumour) 114 % of control and 102 % of control; (endpoint: median tumor weight (est.), dose: 1.22 mg/kg/injection, schedule: Q07DX002 (ip), vehicle: DMSO, higher = larger tumour) 81 % of control; (endpoint: median tumor weight (est.), dose: 2.0 mg/kg/injection, schedule: Q07DX002 (ip), vehicle: DMSO, higher = larger tumour) 121 % of control.

With `CNc1nc2c(N)ncnc2n1C1OC(CO)C(O)C1O` (configuration not stated), under setting [1], the T/C is 103 % of control.

For `O=C/C(Cl)=C(/Cl)C(=O)O`, the T/C by setting is: (endpoint: median tumor weight (est.), dose: 5.0 mg/kg/injection, schedule: Q07DX002 (ip), vehicle: saline with Tween-80, higher = larger tumour) 63 % of control; under setting [10], 113 % of control and 92 % of control.

Values taken from PubChem BioAssay AID212 (DTP/NCI, 2004).
